Values joined by “and” are separate entries in the source; they are usually repeats but may differ in a detail not shown here. Equal entries are not always repeated. “Also recorded” adds a separate entry of the source. Where two headings read alike, the source gives them in different places. Starred links: 1 amine or outer side, 2 acyl side, 3 side chain; linkers in the order of their positions; H or OH if unused. Non-standard residues stand in square brackets, D forms with d. Residues, ends and D or L forms follow the SMILES beside them. X1 = O=C([C@@H]1C[C@H](n2cc([C]34[CH]5[CH]6[CH]7[CH]3[Fe]6754389%10[CH]4[CH]3[CH]8[CH]9[CH]4%10)nn2)CN1[*:1])[*:2]; βAla = NCCC(=O)O
Legend:
[1] = tested on: gp41 of HIV-1 BaL pseudovirus (2 F5 epitope); test: exposure of gp41 MPER epitope, 2 F5 ELISA; conditions: fixed BaL pseudovirions, 30 min at 37°C (dose) or 1 μM (time), n = 3
Method: (§1) We also measured the presence of gp41 epitopes for human mAb’s 2 F5 and 4E10 using an altered ELISA detection method to minimize virus particle disruption. […] Virus fractions were collected and fixed with equal volume of 0.1% paraformaldehyde for 30 minutes at 4°C. The treated virus fractions were spun at 16,000 X g for 2 hours at 4°C in an Eppendorf table top centrifuge. Following PBS wash, fixed virions were coated on an ELISA plate at 50 μl per well and incubated overnight at 4°C. The plate was blocked with 3% BSA, and ELISA was used to detect gp41 epitopes with human gp41 antibodies 2 F5 and 4E10 followed by addition of anti-human IgG HRP secondary antibody.

[2] = tested on: fully infectious HIV-1 BaL virions; conditions: upto 200 µM, n = 3
Method: (§2) The replication competent virions were assayed for peptide triazole-induced inhibition of infection, gp120 shedding and p24 release in a BSL-2 facility. Gradient purification of the viruses and p24 release assays were performed as with pseudoviruses (described in Materials and Methods above). Cell infection by virus and its inhibition by peptide triazoles were tested using a modified version of a previously reported p24 ELISA assay [60]. The p24 release assays as well as detection of gp120 shedding were conducted as with the BaL pseudovirions (described in Materials and Methods above).
(§3) Virions were purified using 6-20% iodixanol gradient and p24 content measured using ELISA. […] HOS CD4^+ve CCR5^+ve cells seeded, at 8,000 cells per well in a 96 well plate, were incubated for 24 hours followed by addition of pre-incubated inhibitor-virus mixture. […] Further, the peptide triazole and cell-free virus were pre-incubated for 30 min at 37°C followed by spinning for 2 hours at 13,600 rpm in a table top centrifuge (Eppendorf) at 4°C. Supernatant was separated and p24 content determined using the p24 capture ELISA (explained in the main Materials and Methods section) and gp120 using western blot analysis (explained in the Supplementary Text above).

[3] = tested on: gp41 of HIV-1 BaL pseudovirus (4E10 epitope); test: exposure of gp41 MPER epitope, 4E10 ELISA; conditions: fixed BaL pseudovirions, 30 min at 37°C (dose) or 1 μM (time), n = 3
Method: as §1

HIV-1 YU2 gp120 = target: T1, HIV-1 YU2 gp120 (Human immunodeficiency virus type 1 group M subtype B, UniProt P35961); test: SPR direct binding to immobilized YU2 gp120; conditions: immobilized YU2 gp120, PBS + 0.005% Tween 20, pH 7.2, 25°C
T1 construct: made in house; host or cells: 293F cells
Method: (Additional file 1: Figure S2). […] Direct binding of the peptide triazole to sensor chip immobilized HIV-1 YU2 gp120 was measured as previously described using Surface Plasmon Resonance (SPR) with a Biacore 3000 optical biosensor (GE Healthcare). […] The cell viability was measured using the tetrazolium salt premix reagent, WST-1 from Takara Bio Inc. following the manufacturer’s protocol. The formazan product was measured using the microplate reader at absorbance wavelength 460 nm (Molecular Devices).

HIV-1 BaL pseudovirus [4] = test: gp120 shedding from HIV-1 BaL pseudovirus (western blot)
HIV-1 BaL pseudovirus [5] = tested on: HIV-1 BaL pseudovirus
[6] = tested on: fully infectious HIV-1 BaL virions; test: gp120 shedding from fully infectious HIV-1 BaL; conditions: read-out: gp120 shedding IC50 (*, fully infectious), 30 min at 37°C, western blot, ± SD
Method: as §2, §3

HIV-1 BaL pseudovirus [7] = test: p24 release from HIV-1 BaL pseudovirus (ELISA); conditions: ELISA
[8] = tested on: gp41 of HIV-1 BaL pseudovirus (98–6 epitope); test: gp41 content of treated virions, mAb 98-6 western blot; conditions: western blot mAb 98–6, BaL pseudovirus
[9] = target: T2, sCD4 binding to plate-immobilized YU2 gp120 (Human immunodeficiency virus type 1 group M subtype B, UniProt P35961); test: competition ELISA, sCD4 binding to gp120; set-up: species or system HIV-1; conditions: ± SD, n > 3
T2 construct: made in house; host or cells: 293F cells

[10] = target: T3, 17b binding to plate-immobilized YU2 gp120 (Human immunodeficiency virus type 1 group M subtype B, UniProt P35961); test: competition ELISA, mAb 17b binding to gp120; set-up: species or system HIV-1; conditions: m17b binding to plate-immobilized gp120, ± SD, n > 3
T3 construct: made in house; host or cells: 293F cells

CD4^-ve CCR5^+ve cells = conditions: cited from earlier work
Method: The same incubation conditions were used as for inhibition of HIV-1 entry into HOS […] cells.

[11] = target: HIV-1 BaL Env gp120 on virions (HIV-1 BaL)
[12] = tested on: R5-tropic and X4-tropic HIV-1; set-up: method as in 2 sources, one per row (each row's own in cited_ref): ref 7-9, 12 = [7]; PMID 20518583; doi:10.2165/11203940-000000000-00000; Perry CM Maraviroc: a review of its use in the management of CCR5-tropic HIV-1 infection Drugs 2010 10 9 1189 1213 10.2165/11203940-000000000-00000 20518583 || [8]; PMID 23541872; doi:10.1016/j.antiviral.2013.03.017; Haqqani AA Tilton JC Entry inhibitors and their use in the treatment of HIV-1 infection Antiviral Res 2013 10 2 158 170 10.1016/j.antiviral.2013.03.017 23541872 || [9]; PMID 23290628; doi:10.1016/j.coviro.2012.12.002; Henrich TJ Kuritzkes DR HIV-1 entry inhibitors: recent development and clinical use Curr Opin Virol 2013 10 1 51 57 10.1016/j.coviro.2012.12.002 23290628 PMC4213740 || [12]; PMID 17933722; Emmelkamp JM Rockstroh JK CCR5 antagonists: comparison of efficacy, side effects, pharmacokinetics and interactions–review of the literature Eur J Med Res 2007 10 9 409 417 17933722 ||| ref 34 = [34]; PMID 23470147; doi:10.1021/bi400166b; Emileh A Tuzer F Yeh H Umashankara M Moreira DR Lalonde JM Bewley CA Abrams CF Chaiken IM A model of peptide triazole entry inhibitor binding to HIV-1 gp120 and the mechanism of bridging sheet disrupt; conditions: cited from earlier work
HIV-1 BaL pseudovirus [13] = test: T20 effect on KR13-induced gp120 shedding, BaL; conditions: KR13 1 μM, T20 up to 1 μM, western blot, n = 3
Method: (§4) Treated virion samples were fractionated on a 6-20% iodixanol gradient (above). Gradient fractions were quantified for p24 using ELISA, and relative p24 release was quantified and plotted using the Origin Pro.8 (Origin Lab). Collected gradient fractions also were analyzed for gp120 shedding using western blot analysis, with detection using primary antibody D7324 and secondary anti-sheep HRP. The bands of the blot were analyzed using Image J software. The IC50 values were calculated using Origin Pro.8 (Origin Lab).

HIV-1 BaL pseudovirus [14] = conditions: KR13 1 μM, T20 dilutions from 1 μM, 30 min at 37°C, p24 ELISA, ± SD, n = 3
Method: as §4

[15] = parenteral; cited from earlier work
Description: There is an urgent need for new antiretroviral agents for the prevention and treatment of HIV-1. Most of the currently approved HIV drugs target viral enzymes, in particular reverse transcriptase, protease and integrase. In contrast, the number of anti-HIV drugs targeting the entry process is more limited. The proteins involved in HIV-1 entry include gp120 and gp41 organized as a trimer on the viral envelope spike, and both CD4 and a chemokine receptor, either CCR5 or CXCR4, on the cell surface. The fusion inhibitor enfuvirtide (T20) and the CCR5 inhibitor maraviroc are t ...

Compound: CC[C@H](C)[C@H](NC(=O)[C@@H](N)CCCNC(=N)N)C(=O)N[C@@H](CC(N)=O)C(=O)N[C@@H](CC(N)=O)C(=O)N[C@H](C(=O)N1C[C@@H](n2cc([C]34[CH]5[CH]6[CH]7[CH]3[Fe]6754389%10[CH]4[CH]3[CH]8[CH]9[CH]4%10)nn2)C[C@H]1C(=O)N[C@@H](Cc1c[nH]c2ccccc12)C(=O)N[C@@H](CO)C(=O)N[C@@H](CCC(=O)O)C(=O)N[C@@H](C)C(=O)N[C@@H](CCSC)C(=O)N[C@@H](CCSC)C(N)=O)[C@@H](C)CC (stereo partly shown) [HNG156]
- reactivity to 2 F5 [1]: MPER epitopes were poorly exposed
- p24 release, fully infectious, in words [2]: No p24 release was observed
- reactivity to 4E10 [3]: MPER epitopes were poorly exposed
- SPR direct binding to gp120, in words (HIV-1 YU2 gp120): bound to gp120
- gp120 shedding, in words (HIV-1 BaL pseudovirus [4]): caused gp120 shedding; also recorded: induced only gp120 shedding
- kinetics of infectivity inhibition versus gp120 shedding (HIV-1 BaL pseudovirus [5]; KR13 1 μM or HNG156 100 μM, 1 min to 24 hours, 37°C): infectivity inhibition and gp120 shedding had similar kinetics
- IC50 [6]: 1800 nM
- p24 release, in words (HIV-1 BaL pseudovirus [7]): neither of these peptides caused p24 release
- gp41 retention / 98–6 detection [8]: gp41 remained associated with virions

Compound: CC[C@H](C)[C@H](NC(=O)[C@@H](N)CCCNC(=N)N)C(=O)N[C@@H](CC(N)=O)C(=O)N[C@@H](CC(N)=O)C(=O)N[C@H](C(=O)N1C[C@@H](n2cc([C]34[CH]5[CH]6[CH]7[CH]3[Fe]6754389%10[CH]4[CH]3[CH]8[CH]9[CH]4%10)nn2)C[C@H]1C(=O)N[C@@H](Cc1c[nH]c2ccccc12)C(=O)N[C@@H](CO)C(=O)N[C@@H](CCC(=O)O)C(=O)N[C@@H](C)C(=O)N[C@@H](CCSC)C(=O)N[C@@H](CCSC)C(=O)NCCC(=O)N[C@@H](CCC(N)=O)C(=O)NCCC(=O)N[C@@H](CSCNC(C)=O)C(N)=O)[C@@H](C)CC (stereo partly shown) [KR13b]
- SPR direct binding to gp120, in words (HIV-1 YU2 gp120): bound to gp120
- gp120 shedding, in words (HIV-1 BaL pseudovirus [4]): caused gp120 shedding; also recorded: induced only gp120 shedding
- p24 release, in words (HIV-1 BaL pseudovirus [7]): neither of these peptides caused p24 release

Compound: CC[C@H](C)[C@H](NC(=O)[C@H](CC(N)=O)NC(=O)[C@H](CC(N)=O)NC(=O)[C@@H](NC(=O)[C@@H](N)CCCNC(=N)N)[C@@H](C)CC)C(=O)N[C@@H](Cc1c[nH]c2ccccc12)C(=O)N1C[C@@H](n2cc([C]34[CH]5[CH]6[CH]7[CH]3[Fe]6754389%10[CH]4[CH]3[CH]8[CH]9[CH]4%10)nn2)C[C@H]1C(=O)N[C@@H](CO)C(=O)N[C@@H](CCC(=O)O)C(=O)N[C@@H](C)C(=O)N[C@@H](CCSC)C(=O)N[C@@H](CCSC)C(=O)NCCC(=O)N[C@@H](CCC(N)=O)C(=O)NCCC(=O)N[C@@H](CS)C(N)=O (stereo partly shown) [KR13s] (H-RINNIW[X1]SEAMM[βAla]Q[βAla]C-NH2; N-terminus assumed)
- IC50, sCD4 competition [9]: undetected
- SPR direct binding to gp120, in words (HIV-1 YU2 gp120): low and inconsistent dose dependent signals
- gp120 shedding, in words (HIV-1 BaL pseudovirus [4]): not the KR13s control, caused gp120 shedding
- inhibition of infection, in words (HIV-1 BaL pseudovirus [5]; single round infection assay): inactive
- IC50, 17b competition [10]: undetected

Compound: CC1(C)CC(NC(=O)C(=O)Nc2ccc(Cl)cc2)CC(C)(C)N1 [NBD-556]
- activation of infection, CD4^-ve CCR5^+ve cells (NBD-556) (CD4^-ve CCR5^+ve cells): can activate infection in CD4^-ve CCR5^+ve cells

Compound: KR13b (KR13 with the thiol blocked with an acetamidomethyl (ACM) group) (peptide)
- gp120 shedding from HIV-1 BaL pseudovirus (western blot), IC50 [11]: 120 nM
- inhibition of cell infection (viral inactivation), HIV-1 BaL pseudovirus, EC50 [11]: 52 nM

Compound: Maraviroc [reference compound]
- antiviral tropism [12]: blocks R5-tropic but not X4-tropic HIV-1

Compound: enfuvirtide
- effect of T20 on KR13-induced gp120 shedding (HIV-1 BaL pseudovirus [13]): did not affect gp120 shedding caused by KR13; also recorded: No significant effect on the gp120 release
- IC50 (HIV-1 BaL pseudovirus [14]): 15 nM and 15.9 nM
- adverse reactions at sites of injection [15]: adverse reactions at sites of injection are common
- IC50 (HIV-1 BaL pseudovirus [5]; read-out: IC50, infection inhibition, BaL (Figure S9), Figure S9, ± SD, n = 3): 34.5 ± 1.2 nM
